# Measurements reported in ChEMBL document CHEMBL3885881, “DrugMatrix”.
# Organism: Rattus norvegicus
# Assay: DrugMatrix - Regimen: Daily Repeat
# Type: toxicity, organism-based, Sprague-Dawley
# Design: regimen Daily Repeat, gender Male, age 6-8 weeks
# Details: in vivo, po, route oral GAVAGE, […]; for ABSOLUTE BASOPHIL / ABSOLUTE EOSINOPHIL / ABSOLUTE LYMPHOCYTE / ABSOLUTE MONOCYTE / ABSOLUTE SEGMENTED NEUTROPHIL / BASOPHIL / EOSINOPHIL / ERYTHROCYTE COUNT / HEMATOCRIT / HEMOGLOBIN / LEUKOCYTE COUNT / LYMPHOCYTE / MEAN CORPUSCULAR HEMOGLOBIN / MEAN CORPUSCULAR HEMOGLOBIN CONCENTRATION / MEAN CORPUSCULAR VOLUME / MONOCYTE / NEUTROPHIL / NUCLEATED RED BLOOD CELLS / PLATELET COUNT: tissue Blood; for ALANINE AMINOTRANSFERASE / ALBUMIN / ALKALINE PHOSPHATASE / ASPARTATE AMINOTRANSFERASE / BLOOD UREA NITROGEN / CARBON DIOXIDE / CHLORIDE / CHOLESTEROL / CREATINE PHOSPHOKINASE / CREATININE / GLUCOSE / LACTATE DEHYDROGENASE / LIPASE / PHOSPHORUS / POTASSIUM / SODIUM / TOTAL BILIRUBIN / TOTAL PROTEIN / URIC ACID: tissue Plasma
# [1] = 500 mg/kg, 72 h, dose level Low, time 3 day
# [2] = 500 mg/kg, 120 h, dose level Low, time 5 day
# [3] = 1100 mg/kg, 72 h, dose level High, time 3 day
# [4] = 1100 mg/kg, 120 h, dose level High, time 5 day
structure (smiles),measurement,setting,value
CCOC(=O)c1ccc(N)cc1 [BENZOCAINE],ABSOLUTE BASOPHIL,[1],0 CELLS/uL
same,ABSOLUTE EOSINOPHIL,[1],229 CELLS/uL
same,ABSOLUTE LYMPHOCYTE,[1],17082.33 CELLS/uL
same,ABSOLUTE MONOCYTE,[1],210.67 CELLS/uL
same,ABSOLUTE SEGMENTED NEUTROPHIL,[1],1644.67 CELLS/uL
same,BASOPHIL,[1],0%
same,EOSINOPHIL,[1],1%
same,ERYTHROCYTE COUNT,[1],5.35 x10E6/uL
same,HEMATOCRIT,[1],35.4%
same,HEMOGLOBIN,[1],14.2 G/DL
same,LEUKOCYTE COUNT,[1],19.17 x10E3/uL
same,LYMPHOCYTE,[1],89.33%
same,MEAN CORPUSCULAR HEMOGLOBIN,[1],26.5 pg
same,MEAN CORPUSCULAR HEMOGLOBIN CONCENTRATION,[1],40.13 G/DL
same,MEAN CORPUSCULAR VOLUME,[1],66.13 fL
same,MONOCYTE,[1],1%
same,NEUTROPHIL,[1],8.67%
same,NUCLEATED RED BLOOD CELLS,[1],0 /100WBC
same,PLATELET COUNT,[1],1441 x10E3/uL
same,ALANINE AMINOTRANSFERASE,[1],64 u/L
same,ALBUMIN,[1],4.2 G/DL
same,ALKALINE PHOSPHATASE,[1],444.67 u/L
same,ASPARTATE AMINOTRANSFERASE,[1],108.33 u/L
same,BLOOD UREA NITROGEN,[1],9.67 mg/dL
same,CARBON DIOXIDE,[1],29 mmol/L
same,CHLORIDE,[1],102.33 MEQ/L
same,CHOLESTEROL,[1],59.33 mg/dL
same,CREATINE PHOSPHOKINASE,[1],648.33 u/L
same,CREATININE,[1],0.35 mg/dL
same,GLUCOSE,[1],175.67 mg/dL
same,LACTATE DEHYDROGENASE,[1],218.67 u/L
same,LIPASE,[1],12.33 u/L
same,PHOSPHORUS,[1],12.33 mg/dL
same,POTASSIUM,[1],6.58 MEQ/L
same,SODIUM,[1],144.73 MEQ/L
same,TOTAL BILIRUBIN,[1],0.2 mg/dL
same,TOTAL PROTEIN,[1],5.7 G/DL
same,URIC ACID,[1],1.73 mg/dL
same,ABSOLUTE BASOPHIL,[2],0 CELLS/uL
same,ABSOLUTE EOSINOPHIL,[2],0 CELLS/uL
same,ABSOLUTE LYMPHOCYTE,[2],16058.33 CELLS/uL
same,ABSOLUTE MONOCYTE,[2],107.33 CELLS/uL
same,ABSOLUTE SEGMENTED NEUTROPHIL,[2],2201 CELLS/uL
same,BASOPHIL,[2],0%
same,EOSINOPHIL,[2],0%
same,ERYTHROCYTE COUNT,[2],4.82 x10E6/uL
same,HEMATOCRIT,[2],32.4%
same,HEMOGLOBIN,[2],13.2 G/DL
same,LEUKOCYTE COUNT,[2],18.37 x10E3/uL
same,LYMPHOCYTE,[2],87%
same,MEAN CORPUSCULAR HEMOGLOBIN,[2],27.47 pg
same,MEAN CORPUSCULAR HEMOGLOBIN CONCENTRATION,[2],40.77 G/DL
same,MEAN CORPUSCULAR VOLUME,[2],67.4 fL
same,MONOCYTE,[2],0.67%
same,NEUTROPHIL,[2],12.33%
same,NUCLEATED RED BLOOD CELLS,[2],0.67 /100WBC
same,PLATELET COUNT,[2],1368 x10E3/uL
same,ALANINE AMINOTRANSFERASE,[2],53.67 u/L
same,ALBUMIN,[2],4.13 G/DL
same,ALKALINE PHOSPHATASE,[2],386 u/L
same,ASPARTATE AMINOTRANSFERASE,[2],98 u/L
same,BLOOD UREA NITROGEN,[2],13 mg/dL
same,CARBON DIOXIDE,[2],29 mmol/L
same,CHLORIDE,[2],104.33 MEQ/L
same,CHOLESTEROL,[2],48.33 mg/dL
same,CREATINE PHOSPHOKINASE,[2],364.67 u/L
same,CREATININE,[2],0.17 mg/dL
same,GLUCOSE,[2],150 mg/dL
same,LACTATE DEHYDROGENASE,[2],646.67 u/L
same,LIPASE,[2],11 u/L
same,PHOSPHORUS,[2],10.6 mg/dL
same,POTASSIUM,[2],6.6 MEQ/L
same,SODIUM,[2],143.27 MEQ/L
same,TOTAL BILIRUBIN,[2],0.3 mg/dL
same,TOTAL PROTEIN,[2],5.77 G/DL
same,URIC ACID,[2],1.63 mg/dL
same,ABSOLUTE BASOPHIL,[3],0 CELLS/uL
same,ABSOLUTE EOSINOPHIL,[3],55.33 CELLS/uL
same,ABSOLUTE LYMPHOCYTE,[3],17429 CELLS/uL
same,ABSOLUTE MONOCYTE,[3],386.67 CELLS/uL
same,ABSOLUTE SEGMENTED NEUTROPHIL,[3],3095.67 CELLS/uL
same,BASOPHIL,[3],0%
same,EOSINOPHIL,[3],0.33%
same,ERYTHROCYTE COUNT,[3],4.95 x10E6/uL
same,HEMATOCRIT,[3],33.3%
same,HEMOGLOBIN,[3],13.8 G/DL
same,LEUKOCYTE COUNT,[3],20.97 x10E3/uL
same,LYMPHOCYTE,[3],81.67%
same,MEAN CORPUSCULAR HEMOGLOBIN,[3],27.93 pg
same,MEAN CORPUSCULAR HEMOGLOBIN CONCENTRATION,[3],41.43 G/DL
same,MEAN CORPUSCULAR VOLUME,[3],67.4 fL
same,MONOCYTE,[3],1.33%
same,NEUTROPHIL,[3],16.67%
same,NUCLEATED RED BLOOD CELLS,[3],0.33 /100WBC
same,PLATELET COUNT,[3],1424.33 x10E3/uL
same,ALANINE AMINOTRANSFERASE,[3],72 u/L
same,ALBUMIN,[3],4.03 G/DL
same,ALKALINE PHOSPHATASE,[3],546.33 u/L
same,ASPARTATE AMINOTRANSFERASE,[3],93.33 u/L
same,BLOOD UREA NITROGEN,[3],10.33 mg/dL
same,CARBON DIOXIDE,[3],31 mmol/L
same,CHLORIDE,[3],104.33 MEQ/L
same,CHOLESTEROL,[3],61 mg/dL
same,CREATINE PHOSPHOKINASE,[3],361.67 u/L
same,CREATININE,[3],0.14 mg/dL
same,GLUCOSE,[3],138.67 mg/dL
same,LACTATE DEHYDROGENASE,[3],171 u/L
same,LIPASE,[3],11.33 u/L
same,PHOSPHORUS,[3],11.13 mg/dL
same,POTASSIUM,[3],6.37 MEQ/L
same,SODIUM,[3],144.8 MEQ/L
same,TOTAL BILIRUBIN,[3],0.3 mg/dL
same,TOTAL PROTEIN,[3],5.57 G/DL
same,URIC ACID,[3],1.27 mg/dL
same,ABSOLUTE BASOPHIL,[4],0 CELLS/uL
same,ABSOLUTE EOSINOPHIL,[4],0 CELLS/uL
same,ABSOLUTE LYMPHOCYTE,[4],14423.33 CELLS/uL
same,ABSOLUTE MONOCYTE,[4],145 CELLS/uL
same,ABSOLUTE SEGMENTED NEUTROPHIL,[4],2531.67 CELLS/uL
same,BASOPHIL,[4],0%
same,EOSINOPHIL,[4],0%
same,ERYTHROCYTE COUNT,[4],4.51 x10E6/uL
same,HEMATOCRIT,[4],32.4%
same,HEMOGLOBIN,[4],13.97 G/DL
same,LEUKOCYTE COUNT,[4],17.1 x10E3/uL
same,LYMPHOCYTE,[4],84.33%
same,MEAN CORPUSCULAR HEMOGLOBIN,[4],31.07 pg
same,MEAN CORPUSCULAR HEMOGLOBIN CONCENTRATION,[4],43.13 G/DL
same,MEAN CORPUSCULAR VOLUME,[4],71.97 fL
same,MONOCYTE,[4],1%
same,NEUTROPHIL,[4],14.67%
same,NUCLEATED RED BLOOD CELLS,[4],1.33 /100WBC
same,PLATELET COUNT,[4],1244.67 x10E3/uL
same,ALANINE AMINOTRANSFERASE,[4],56.67 u/L
same,ALBUMIN,[4],4.2 G/DL
same,ALKALINE PHOSPHATASE,[4],347.67 u/L
same,ASPARTATE AMINOTRANSFERASE,[4],84 u/L
same,BLOOD UREA NITROGEN,[4],13.33 mg/dL
same,CARBON DIOXIDE,[4],32.67 mmol/L
same,CHLORIDE,[4],102.33 MEQ/L
same,CHOLESTEROL,[4],58 mg/dL
same,CREATINE PHOSPHOKINASE,[4],180 u/L
same,CREATININE,[4],0.13 mg/dL
same,GLUCOSE,[4],145.33 mg/dL
same,LACTATE DEHYDROGENASE,[4],146.67 u/L
same,LIPASE,[4],11 u/L
same,PHOSPHORUS,[4],11.13 mg/dL
same,POTASSIUM,[4],6.79 MEQ/L
same,SODIUM,[4],143.83 MEQ/L
same,TOTAL BILIRUBIN,[4],0.37 mg/dL
same,TOTAL PROTEIN,[4],5.9 G/DL
same,URIC ACID,[4],1.53 mg/dL
